Measurements published in patent EP0605371A1 (priority 1992, dated 1994).

Tests used:
[1] = system: cancer patients; details: cancer patients no longer responsive to conventional therapies; cited from earlier work
[2] = system: patients with systemic scleroderma; assay type: in vivo
Experimental: (§1) Treatment with melatonin was administered to ambulant patients with various forms of systemic scleroderma, in various stages of the disease, and to patients with sarcoidosis.
(§2) The patients and methods were as follows:
(§3) Ten patients with systemic scleroderma in an active phase and four patients with pulmonary sarcoidosis were selected.
The clinical characteristics of the patients with systemic scleroderma and the level of activity and severity of the disease were assessed with the aid of a skin score (cf. annexe) and information obtained from lung function tests, a chest X-ray, pulmonary CAT and numerous laboratory tests (antinuclear antibodies (A), A to the extractable nuclear antigen Scl-70, antinucleolar A, anti-DNA A, antimicrosome A, anticentromeric A, ESR, ACE, CRP, gamma globulins).
To assess the effects of the treatment, the skin-score, ESR, ACE, CRP were determined monthly, the lung function tests were performed every 2 months, and chest X-ray and/or thoracic CAT carried out at the end of a 4-month course of treatment.
(§4) When the clinical evaluation had been completed and after all the laboratory tests had been performed, the patients with systemic scleroderma and sarcoidosis received in a daily dose of 20 mg taken by mouth as a single dose between 18.00 and 20.00 hours. This timing was chosen with the aim of interfering as little as possible with the circadian rhythm of endogenous melatonin secretion.
The clinical investigations and laboratory tests performed at the start of the combined treatment therefore served both as a control on the treatment with hydroxychloroquine and to provide the base values for the tests performed during the treatment with melatonin.
(§5) The other patients with systemic scleroderma and those with sarcoidosis received only melatonin.

[3] = system: patients with Parkinson's disease; details: cited from earlier work
[4] = system: patients with pulmonary sarcoidosis; assay: Four-month oral melatonin treatment of patients with pulmonary sarcoidosis; assay type: in vivo
Experimental: as §1, §2, §3
The diagnosis was made on the basis of histological tests performed on biopsy samples, the BAL for the T-lymphocyte count and scintigraphy with gallium-67. Overall lung function tests, a chest X-ray and numerous laboratory tests (ACE, blood calcium, urinary calcium, ESR, etc.) were also performed.
The effects of the treatment were evaluated monthly on the basis of any changes in lung function and ACE levels and at the end of the four-month period on the basis of any changes in the radiological findings.
as §4, §5

[5] = 20 mg melatonin per day for four months

Compound: COc1ccc2[nH]cc(CCNC(C)=O)c2c1 [melatonin, 5-methoxy-N-acetyltryptamine]
- patients' general condition and disease course [1]: the patients' general condition showed improvement and the disease was temporarily stabilized
- CRP or gamma globulin values [2, 5]: No significant changes
- subjective respiratory disturbances [2, 5]: marked subjective reduction
- lung function tests ([2]; 20 mg melatonin per day for four months, ten patients): significant improvement in nine of the ten patients
- skin score ([2]; 20 mg melatonin per day for four months, ten patients (FIG.1)): highly positive results
- chest X-ray ([2]; after 4 months of treatment, all patients): No significant changes were found in any of the patients
- ESR ([2]; throughout the course of treatment, 20 mg per day): It was not possible to demonstrate that the hormone treatment had an effect on this parameter
- demonstrable advantages ([3]; daily doses of up to 6 g): no demonstrable advantages
- adverse effects ([3]; human, in vivo): no adverse effects
- radiological investigation (changes affecting the hilum and the pulmonary parenchyma) ([4]; end of the four-month course): definitive reduction
- lung function tests ([4]; end of the four-month course, four patients): the findings in three patients had returned to normal and the fourth patient showed marked improvement
- fall of BAL lymphocyte count ([4]; end of the four-month course, on average): 70%
- ACE ([4]; monthly determination, 20 mg per day, all cases (FIG.2)): the values gradually returned to normal
